Measured values as given in patent US9650390B2, “Water-soluble taxane derivatives and uses thereof” (priority 2014, dated 2017).

How the values were obtained:
[1] = In vitro dissociation in blood plasma of rat; assay type: in vitro ADME, SD rats; conditions: fresh SD rat plasma, 37° C.; for Sampling time/Dissociation percent (%) 2 min: 2 min incubation; for Sampling time/Dissociation percent (%) 5 min: 5 min incubation; for Sampling time/Dissociation percent (%) 10 min: 10 min incubation
Experimental: The obtained water soluble taxane derivatives of the following formulae were formulated as 0.2 mg/ml aqueous solutions. […] After 2 min, 5 min and 10 min of incubation, 0.2 ml of solutions were respectively taken from each of the samples, and added to acetonitrile (0.4 ml) cooled to −20° C. for precipitation of protein.

[2] = tested on: human prostate cancer PC-3; assay: Inhibitory activity of docetaxel derivatives on subcutaneously xenografted tumor PC-3 in nude mice; assay type: in vivo; conditions: 33.6 mg/kg, D0 IV; for T/C (%) D20 / Tumor inhibitory percent (%) D20 / Tumor volume (mm^3) (D0) / Tumor volume (mm^3) (D20): PC-3 xenograft in nude mice; for Tumor inhibitory percent (%) D20: P = 0.000 vs control; for Tumor volume (mm^3) (D0): baseline at grouping (D0); for Weight change (%) D6: nude mice
Source text: Purpose: to evaluate and compare the inhibitory activity of the water soluble docetaxel derivatives and docetaxel on subcutaneously xenografted tumor of human prostate cancer PC-3 in nude mice
Human prostate cancer PC-3 cells were subcutaneously inoculated into nude mice. After the tumor volume reached 100-150 mm^3, the animals were randomly divided into several groups, and administered with the water soluble docetaxel derivatives of the following formula and docetaxel, respectively once on the same day (D0). The tumor volume was measured 2-3 times per week, the animals were weighed and the data were recorded until day 20 (D20) after grouping.
(§1) The tumor volume (V) was calculated according to the equation: V=½×a×b^2, wherein a and b represent the length and the width, respectively.
T/C (%)=(T−T0)/(C−C0)×100, wherein T and C represent the tumor volume at the end of the experiment; and T0 and C0 represent the tumor volume at the beginning of the experiment.

[3] = In vitro dissociation in blood plasma of rabbit; assay type: in vitro ADME, New Zealand white rabbits; conditions: fresh New Zealand white rabbit plasma, 37° C.
Experimental: The obtained water soluble taxane derivatives of the following formulae were formulated as 0.2 mg/ml aqueous solutions. […]

[4] = tested on: human ovarian cancer SK-OV-3; conditions: 24 mg/kg, D0-4 IV; for Body weight change (%) D4: nude mice; for T/C (%) D22 / Tumor volume (mm^3) (D22) / Tumor volume (mm^3) (D0) / Tumor inhibitory percent (%) D22: SK-OV-3 xenograft in nude mice; for Tumor volume (mm^3) (D0): baseline at grouping (D0); for Tumor inhibitory percent (%) D22: P = 0.000 vs control
Source text: Purpose: to evaluate and compare the inhibitory activity of the water soluble paclitaxel derivatives, paclitaxel and Abraxane® on subcutaneously xenografted tumor of human ovarian cancer SK-OV-3 in nude mice.
Human ovarian cancer SK-OV-3 cells were subcutaneously inoculated to nude mice. After the tumor volume reached 100-150 mm^3, the animals were randomly divided into groups (D0), and administered with the water soluble paclitaxel derivatives of the following formula, paclitaxel, and Abraxane®, respectively once per day for 5 days. The tumor volume was measured 2-3 times per week, the animals were weighed and the data were recorded until day 22 (D22) after grouping.
as §1
T/C (%)=(T−T0)/(C−C0)×100, wherein T and C represent the tumor volume at the end of the experiment, and T0 and C0 represent the tumor volume at the beginning of the experiment.

| SMILES | Sampling time/Dissociation percent (%) 2 min [1] [%] | Sampling time/Dissociation percent (%) 5 min [1] [%] | Sampling time/Dissociation percent (%) 10 min [1] [%] | T/C (%) D20 [2] [%] | Tumor inhibitory percent (%) D20 [2] [%] | Tumor volume (mm^3) (D0) [2] | Sampling time/Dissociation percent (%) 2 min [3] [%] | Sampling time/Dissociation percent (%) 5 min [3] [%] | Sampling time/Dissociation percent (%) 10 min [3] [%] | Tumor volume (mm^3) (D20) [2] | Weight change (%) D6 [2] [%] | Body weight change (%) D4 [4] [%] | T/C (%) D22 [4] [%] | Tumor volume (mm^3) (D22) [4] | Tumor volume (mm^3) (D0) [4] | Tumor inhibitory percent (%) D22 [4] [%] |
| --- | --- | --- | --- | --- | --- | --- | --- | --- | --- | --- | --- | --- | --- | --- | --- | --- |
| CC(=O)O[C@@]12CO[C@@H]1C[C@H](O)[C@@]1(C)C(=O)[C@H](O)C3=C(C)[C@@H](OC(=O)[C@H](OC(=O)[C@H](F)CCN(C)C)[C@@H](NC(=O)OC(C)(C)C)c4ccccc4)C[C@@](O)([C@@H](OC(=O)c4ccccc4)[C@H]21)C3(C)C.CS(=O)(=O)O [Compound C4, 2′-O-[4-N,N-dimethylamino-2(R)-fluorobutyryl]docetaxel methanesulfonate] | 59.2 | 93.4 | 100 | −77 | 177 | 113.7 ± 2.9 | 81.6 | 94.8 | 100 | – | – | – | – | – | – | – |
| CC(=O)O[C@@]12CO[C@@H]1C[C@H](O)[C@@]1(C)C(=O)[C@H](O)C3=C(C)[C@@H](OC(=O)[C@H](OC(=O)[C@@H](F)CCN(C)C)[C@@H](NC(=O)OC(C)(C)C)c4ccccc4)C[C@@](O)([C@@H](OC(=O)c4ccccc4)[C@H]21)C3(C)C.CS(=O)(=O)O [Compound C5, 2′-O-[4-N,N-dimethylamino-2(S)-fluorobutyryl]docetaxel methanesulfonate] | 58.9 | 93.3 | 100 | −76 | 175 | 113.4 ± 3.1 | 81.2 | 93.1 | 100 | 26.8 ± 12.6 | – | – | – | – | – | – |
| CC(=O)O[C@@]12CO[C@@H]1C[C@H](O)[C@@]1(C)C(=O)[C@H](O)C3=C(C)[C@@H](OC(=O)[C@H](OC(=O)C(F)CCN(C)C)[C@@H](NC(=O)OC(C)(C)C)c4ccccc4)C[C@@](O)([C@@H](OC(=O)c4ccccc4)[C@H]21)C3(C)C.CS(=O)(=O)O (stereo partly drawn) [Compound C6, 2′-O-[4-N,N-dimethylamino-2(R,S)-fluorobutyryl]docetaxel methanesulfonate] | 59.1 | 93.3 | 100 | −76 | 175 | 113.8 ± 3.0 | 76.8 | 97.8 | 100 | 27.0 ± 12.3 | −12.6 | – | – | – | – | – |
| CCN(C)CC[C@@H](F)C(=O)O[C@@H](C(=O)O[C@H]1C[C@@]2(O)[C@@H](OC(=O)c3ccccc3)[C@@H]3[C@]4(OC(C)=O)CO[C@@H]4C[C@H](O)[C@@]3(C)C(=O)[C@H](OC(C)=O)C(=C1C)C2(C)C)[C@@H](NC(=O)c1ccccc1)c1ccccc1.CS(=O)(=O)O [Compound C18, 2′-O-[4-N-methyl-N-ethylamino-2(R)-fluorobutyryl]paclitaxel methanesulfonate] | – | – | – | – | – | – | – | – | – | – | – | −7.0 | −53 | 55.7 ± 10.6 | 133.6 ± 9.4 | – |
| CCN(CC)CC[C@H](F)C(=O)O[C@@H](C(=O)O[C@H]1C[C@@]2(O)[C@@H](OC(=O)c3ccccc3)[C@@H]3[C@]4(OC(C)=O)CO[C@@H]4C[C@H](O)[C@@]3(C)C(=O)[C@H](OC(C)=O)C(=C1C)C2(C)C)[C@@H](NC(=O)c1ccccc1)c1ccccc1.O=C(O)/C=C/C(=O)O [Compound C19, 2′-O-[4-N,N-diethylamino-2(S)-fluorobutyryl]paclitaxel fumarate] | – | – | – | – | – | – | – | – | – | – | – | −8.1 | −44 | 55.7 ± 10.1 | 133.6 ± 9.4 | – |
| CC(=O)O[C@H]1C(=O)[C@@]2(C)[C@H]([C@H](OC(=O)c3ccccc3)[C@]3(O)C[C@H](OC(=O)[C@H](OC(=O)C(F)CCN(C)C(C)C)[C@@H](NC(=O)c4ccccc4)c4ccccc4)C(C)=C1C3(C)C)[C@]1(OC(C)=O)CO[C@@H]1C[C@@H]2O.Cl (stereo partly drawn) [Compound C20, 2′-O-[4-N-methyl-N-isopropylamino-2(R,S)-fluorobutyryl]paclitaxel hydrochloride] | – | – | – | – | – | – | – | – | – | – | – | −10.3 | −38 | 60.4 ± 12.3 | 127.9 ± 11.4 | 98 |
| CC(=O)OC1C(=O)C2(C)C(O)CC3OCC3(OC(C)=O)C2C(OC(=O)c2ccccc2)C2(O)CC(OC(=O)C(OC(=O)C(CCN(C)C)C(F)(F)F)C(NC(=O)c3ccccc3)c3ccccc3)C(C)=C1C2(C)C.Cc1ccc(S(=O)(=O)O)cc1 [Compound C21, 2′-O-[4-N,N-dimethylamino-2(R,S)-2-trifluoromethylbutyryl]paclitaxel p-toluene sulfonate] | – | – | – | – | – | – | – | – | – | – | – | −8.9 | −48 | 57.3 ± 11.4 | 134.9 ± 11.4 | – |
| CC(=O)O[C@H]1C(=O)[C@@]2(C)[C@H]([C@H](OC(=O)c3ccccc3)[C@]3(O)C[C@H](OC(=O)[C@H](OC(=O)C(CCN(C)C)C(F)F)[C@@H](NC(=O)c4ccccc4)c4ccccc4)C(C)=C1C3(C)C)[C@]1(OC(C)=O)CO[C@@H]1C[C@@H]2O.Cl (stereo partly drawn) [Compound C22, 2′-O-[4-N,N-dimethylamino-2(R,S)-2-difluoromethylbutyryl]paclitaxel hydrochloride] | – | – | – | – | – | – | – | – | – | – | – | −8.4 | −35 | 61.2 ± 13.5 | 133.4 ± 12.6 | 135 |
| CC(=O)OC1C(=O)C2(C)C(O)CC3OCC3(OC(C)=O)C2C(OC(=O)c2ccccc2)C2(O)CC(OC(=O)C(OC(=O)C(F)CC(C)N(C)C)C(NC(=O)c3ccccc3)c3ccccc3)C(C)=C1C2(C)C.O=C(O)C=CC(=O)O [Compound C23, 2′-O-[4-N,N-dimethylamino-2(R)-fluorovaleryl]paclitaxel maleate] | – | – | – | – | – | – | – | – | – | – | – | −9.4 | −23 | 70.8 ± 16.8 | 135.8 ± 14.7 | 60 |
| CC(=O)O[C@@]12CO[C@@H]1C[C@H](O)[C@@]1(C)C(=O)[C@H](O)C3=C(C)[C@@H](OC(=O)[C@H](OC(=O)[C@H](F)CCN(C)C(C)C)[C@@H](NC(=O)OC(C)(C)C)c4ccccc4)C[C@@](O)([C@@H](OC(=O)c4ccccc4)[C@H]21)C3(C)C.Cl [Compound C27, 2′-O-[4-N-methyl-N-isopropylamino-2(R)-fluorobutyryl]docetaxel hydrochloride] | – | – | – | −44 | 101 | 116.3 ± 3.7 | – | – | – | 35.3 ± 14.7 | −14.4 | – | – | – | – | – |
| CC(=O)O[C@@]12CO[C@@H]1C[C@H](O)[C@@]1(C)C(=O)[C@H](O)C3=C(C)[C@@H](OC(=O)[C@H](OC(=O)[C@@H](CCN(C)C)C(F)(F)F)[C@@H](NC(=O)OC(C)(C)C)c4ccccc4)C[C@@](O)([C@@H](OC(=O)c4ccccc4)[C@H]21)C3(C)C.CS(=O)(=O)O [Compound C28, 2′-O-[4-N,N-dimethylamino-2(R)-2-trifluoromethylbutyryl]docetaxel methanesulfonate] | – | – | – | −46 | 105 | 113.5 ± 2.8 | – | – | – | 34.5 ± 12.6 | −13.9 | – | – | – | – | – |
| CC(=O)O[C@@]12CO[C@@H]1C[C@H](O)[C@@]1(C)C(=O)[C@H](O)C3=C(C)[C@@H](OC(=O)[C@H](OC(=O)C(CCN(C)C)C(F)F)[C@@H](NC(=O)OC(C)(C)C)c4ccccc4)C[C@@](O)([C@@H](OC(=O)c4ccccc4)[C@H]21)C3(C)C.Cl (stereo partly drawn) [Compound C29, 2′-O-[4-N,N-dimethylamino-2(R,S)-2-difluoromethylbutyryl]docetaxel hydrochloride] | – | – | – | −37 | 85 | 116.7 ± 3.1 | – | – | – | 36.8 ± 13.4 | −15.1 | – | – | – | – | – |
